Patent US7070942B2, “Method of inducing or enhancing chondrogenesis with extracellular matrix containing GDF-5” (DePuy Spine, Inc., priority 1998, dated 2006)

Key:
[1] = system: GDF-5/type I collagen-induced chondrogenesis; test: Inhibitors of intracellular signaling mediators on GDF-5/type I collagen-induced chondrogenesis; type: cell-based; conditions: GDF-5 in the context of type I collagen
Excerpt: The molecular signaling mechanism by which GDF-5 induces chondrogenesis in the context of type I collagen was also examined using well-characterized inhibitors of intracellular signaling mediators. […] The known inhibitory effect of rapamycin on activation of p70S6 kinase indicate that GDF-5/type I collagen-induced chondrogenesis is mediated through p70S6 kinase activation.

FRC [2] = test: Chondrogenesis by monochromatic staining of FRC cultured in the presence of type I collagen and various growth factors; type: cell-based, rat; conditions: FRC in the presence of type I collagen
Protocol: The growth and differentiation factor-induced chondrogenesis is highly specific to GDF-5. It was shown that ECM-dependent chondrogenesis by GDF-5 is highly specific, by evaluating the ability of several mitogens and prototype differentiation factors under the following conditions. Chondrogenesis was assessed by monochromatic staining of FRC cultured in the presence of type I collagen and various growth factors.

[3] = system: fetal rat calvarial cells (FRC's); test: Fetal rat calvarial cells plated on purified extracellular matrix proteins with GDF-5; chondrogenic nodule formation, alcian blue stain; type: cell-based; conditions: GDF-5 100 ng/ml
Protocol: To show in vitro application, fetal rat calvarial cells (FRC's) were plated on various purified extracellular matrix proteins in the presence of recombinant human GDF-5 (100 ng/ml) for 3 weeks and scored for differentiation at the level of morphology, overall proteoglycan synthesis and deposition, and aggrecan and type II collagen expression. […] Chondrogenic nodules stained heavily with alcian blue and were positive for type II collagen and aggrecan-expression, as judged by immunohistochemical and transcriptional analyses. Cells in monolayer that surround the nodules were negative for the chondrogenic markers.
Plastic plates were first coated with different ECM proteins including type I and II collagen, type IV collagen, or fibronectin. […] Plastic culture 12 well (Costar, Cambridge, Mass.) were coated with 0.01% (w/v) of the indicated extracellular matrix proteins for 2 hours at 37° C. After removal of nonadsorbant protein, fetal rat calvarial cells were plated at a density of 2×10^5 cells/well in DMEM containing 10% FBS. Culture plates were then maintained for 21 days in culture media supplemented with or without GDF-5 (100 ng/ml). Plates were then stained overnight with alcian blue stain (0.5% w/v in 3% acetic acid), washed and photographed. For quantitation of alcian blue, cells were solubilized in 8M urea, and the amount of stain was quantitated using spectrophotometer (Molecular Devices, Sunnyvale, Calif.).

FRC [4] = test: FRC seeded in porous type I collagen matrix, RT-PCR and histology with alcian or Toludine blue staining; type: cell-based, rat; conditions: GDF-5 100 ng/ml, 3 weeks
Protocol: A porous matrix fabricated from type I collagen was seeded by, 1×10^5 cell per implant (2×3×3 mm). Cells embedded in matrices were then cultured for 3 weeks in culture supplemented with or without GDF-5 (100 ng/ml). Total RNA isolated from each implant were then subjected to RT-PCR. […] In parallel the implant material was subject to histological evaluation followed by alcian or Toludine blue staining. […] Under these conditions FRC cells were not able to proliferate and differentiate in the ECM in the absence of GDF-5 as measured by histological evaluation total DNA, RNA or protein content.

FRC cells [5] = test: Immunoblot of total cell lysates for type II collagen or aggrecan; type: cell-based, rat
Protocol: Total cell lysates (100 ug) were electrophoretically separated on a 8% or 5% SDSPAGE, transferred to immobilon-P and immunoblotted using antibody specific to type II collagen or aggrecan.

Sprague-Dawley rats = test: Rat soft tissue implants, intramuscular, alkaline phosphatase activity and histology at 14 days; type: in vivo
Excerpt: In vivo activity of rhGDF-5 on collagen-based matrices.
In Vivo Assays, Rat Soft Tissue Implants: Matrix/growth factor combinations were implanted either subcutaneously in the thoracic region or intramuscularly in posterior tibial muscle pouches created by blunt dissection in 8 week old male Sprague-Dawley rats. At 14 days post-surgery, implants were harvested, weighed and processed for routine histology (fixed in 10% formalin, paraffin-embedded, sectioned to 6 μm, and hematoxylin and eosin stained). Alternatively, implants were extracted and assayed for alkaline phosphatase activity.

[6] = system: heterodimer of receptor for BMPs; conditions: cited from earlier work
MC3T3-E1 cells = conditions: well differentiated osteoblastic MC3T3-E1 cells; cited from earlier work
FRC cells [7] = test: Semiquantitative PCR of aggrecan, type II collagen and type I collagen mRNA in FRC culture treated with GDF-5 in the presence of type I collagen; type: cell-based, rat; conditions: FRC with GDF-5 in the presence of type I collagen
Excerpt: To examine correlation of changes in cellular morphology with the process of chondrogenesis, total cellular RNA and protein were isolated from FRC culture treated with GDF-5 in the presence of type I collagen. Total cellular RNA isolated from FRC cells was subjected to a semiquantitative PCR analysis using specific primers designed to amplify aggrecan, type II collagen or type I collagen. […] Under these conditions, type I collagen mRNA expression decreased by about 20%. The expression of aggrecan and type II collagen was confirmed using slot blot analysis.

FRC cells [8] = test: FRC in 3D collagen-based matrices of different porosity, with or without hyaluronic acid coating, semi-quantitative PCR; type: cell-based, rat; conditions: only in matrices coated with hyaluronic acid with the highest porosity (about 300 micron); GDF-5 100 ng/ml, 3 weeks
Protocol: Each matrix composite was either coated with or without hyaluronic acid, a major component of cartilage. The implants were then seeded with 1×10^5 cells per implant and cultured for 3 weeks in the presence of GDF-5 (100 ng/ml). Total RNA extracted from each implant were then subjected to semi-quantitative PCR analysis. […] Together these findings indicate that GDP-5 chondrogenesis activity is fully and potently synergized by a matrix which contain 1) high pore size (about 100-300 micron); and 2) is composed of type I collagen which is coated with hyaluronic acid.

rat limb bud cells = conditions: cited from earlier work
[9] = system: rat osteoprogenitor cells ROB-C26; conditions: cited from earlier work

CCCC(=O)Nc1ncnc2c1ncn2[C@@H]1O[C@@H]2COP(=O)(O)O[C@H]2[C@H]1OC(=O)CCC [dibutyryl-cAMP]
inhibition of ligand-dependent chondrogenesis [1]: not

IGF-II: growth factor
stimulation of chondrogenesis (FRC [2]): failed to stimulate chondrogenesis

GDF-5: growth and differentiation factor-5, a member of the bone morphogenetic protein (BMP) family that is involved in joint development
formation of chondrogenic cell aggregate binding alcian blue stain ([3]; ECM-coated plastic plates (0.01% w/v), 21 days): stimulated the formation of chondrogenic cell aggregate | formation of characteristic nodules ([3]; FRC cultured in the presence of vehicle alone, type IV collagen or fibronectin, 21 days): fails to stimulate the formation of characteristic nodules | chondrogenesis ([3]; FRC's plated on fibronectin, type IV collagen or tissue culture plastic, 3 weeks): failed to stimulate chondrogenesis | chondrogenic nodule formation ([3]; FRC's plated on type I or type II collagen, 3 weeks): stimulated chondrogenic nodule formation | expression of aggrecan and type II collagen (RT-PCR) (FRC [4]; 1x10^5 cells per implant): induced expression | cellular morphology of FRC (alcian blue staining, cell shape) (FRC [4]; histology): marked changes in cellular morphology | expression of type II collagen or aggrecan (FRC cells [5]; FRC cells cultured in the absence of type I collagen): fails to stimulate expression | steady state level of type II collagen and aggrecan (FRC cells [5]; FRC cultured with type I collagen): significant increase | alkaline phosphatase activity and chondrogenesis (Sprague-Dawley rats; CN/HA matrices loaded with 1, 5 and 50 μg, intramuscular in rats): dose-depended increase | chondrogenesis and full terminal differentiation (Sprague-Dawley rats; mineralized collagen combined with rhGDF-5, intramuscular in rats): very little evidence | binding to heterodimer of receptor for BMPs [6]: binds | alkaline phosphatase activity (MC3T3-E1 cells): fails to stimulate | decrease of type I collagen mRNA expression (FRC cells [7]): about 20% | increase of aggrecan mRNA expression (FRC cells [7]): ~3 | increase of type II collagen mRNA expression (FRC cells [7]): around 2 | expression level of type II collagen and aggrecan (FRC cells [8]): significant increase | mesenchymal aggregation and chondrogenesis (rat limb bud cells): stimulates | alkaline phosphatase activity [9]: stimulates

O=C(O)CN(CCOCCOCCN(CC(=O)O)CC(=O)O)CC(=O)O [EGTA]
inhibition of ligand-dependent chondrogenesis [1]: not

[Na+].[Na+].[Na+].[O]=[V]([O-])([O-])[O-] [Na3VO4]
inhibition of ligand-dependent chondrogenesis [1]: not

TGFb
stimulation of chondrogenesis (FRC [2]): completely failed to stimulate chondrogenesis

bFGF: growth factor
stimulation of chondrogenesis (FRC [2]): failed to stimulate chondrogenesis

IGF-I: growth factor
stimulation of chondrogenesis (FRC [2]): failed to stimulate chondrogenesis

CNc1ccc2oc(C[C@H]3O[C@@]4(CC[C@H]3C)O[C@H]([C@H](C)C(=O)c3ccc[nH]3)[C@H](C)C[C@H]4C)nc2c1C(=O)O [A23187]
inhibition of ligand-dependent chondrogenesis [1]: completely inhibited
